In assay [1] the target is GABAA receptor ([35S]-TBPS binding, rat brain cortical membranes). Nature of the assay: Steroid inhibition of [35S]-TBPS binding. The note with it: 3 nM [35S]-TBPS, in the presence of 5 mM GABA. As for the experimental part: [35S]-t-Butylbicyclophosphorothionate (TBPS) binding assays using rat brain cortical membranes in the presence of 5 mM GABA has been described (Gee et al, J. Pharmacol. Exp. Ther. 1987, 241, 346-353; Hawkinson et al, Mol. Pharmacol. 1994, 46, 977-985; Lewin, A. H et al., Mol. Pharmacol. 1989, 35, 189-194).
Briefly, cortices are rapidly removed following decapitation of carbon dioxide-anesthetized Sprague-Dawley rats (200-250 g). The cortices are homogenized in 10 volumes of ice-cold 0.32 M sucrose using a glass/teflon homogenizer and centrifuged at 1500×g for 10 min at 4° C. The resultant supernatants are centrifuged at 10,000×g for 20 min at 4° C. to obtain the P2 pellets. The P2 pellets are resuspended in 200 mM NaCl/50 mM Na—K phosphate pH 7.4 buffer and centrifuged at 10,000×g for 10 min at 4° C. This washing procedure is repeated twice and the pellets are resuspended in 10 volumes of buffer. Aliquots ([…]) of the membrane suspensions are incubated with 3 nM [35S]-TBPS and 5 mL aliquots of test drug dissolved in dimethyl sulfoxide (DMSO) (final 0.5%) in the presence of 5 mM GABA. The incubation is brought to a final volume of 1.0 mL with buffer. Nonspecific binding is determined in the presence of […] and ranged from 15 to 25%. Following a 90 min incubation at room temp, the assays are terminated by filtration through glass fiber filters (Schleicher and Schuell No. 32) using a cell harvester (Brandel) and rinsed three times with ice-cold buffer. Filter bound radioactivity is measured by liquid scintillation spectrometry. Non-linear curve fitting of the overall data for each drug averaged for each concentration is done using Prism (GraphPad). […] The concentration of test compound producing 50% inhibition (IC50) of specific binding and the maximal extent of inhibition (Imax) are determined for the individual experiments with the same model used for the overall data and then the means±SEM.s of the individual experiments are calculated.
Various compounds are or can be screened to determine their potential as modulators of [35S]-TBPS binding in vitro. These assays are or can be performed in accordance with the above

Assay [2] concerns GABAA receptor ([35S]-TBPS binding, rat brain cortical membranes). The note with it: statement on the positive control; cited from earlier work.

With `C[C@@]1(O)CC[C@H]2[C@@H](CC[C@@H]3[C@@H]2CC[C@]2(C)[C@@H](C(=O)CCn4cc(C#N)cn4)CC[C@@H]32)C1` [Example 1, 1-(3-((3R,5S,8R,9R,10S,13S,14S,17S)-3-hydroxy-3,13-dimethylhexadecahydro-1H-cyclopenta[a]phenanthren-17-yl)-3-oxopropyl)-1H-pyrazole-4-carbonitrile], the IC50 in assay [1] was < 100 nM.
The same measure, in the same setting: under `COC[C@@]1(O)CC[C@H]2[C@@H](CC[C@@H]3[C@@H]2CC[C@]2(C)[C@@H](C(=O)CCn4cc(C#N)cn4)CC[C@@H]32)C1` [Example 2, 1-(3-((3R,5S,8R,9R,10S,13S,14S,17S)-3-hydroxy-3-(methoxymethyl)-13-methylhexadecahydro-1H-cyclopenta[a]phenanthren-17-yl)-3-oxopropyl)-1H-pyrazole-4-carbonitrile] stands < 100 nM; under `C[C@@]1(O)CC[C@H]2[C@H](CC[C@@H]3[C@@H]2CC[C@]2(C)[C@@H](C(=O)CCCn4cc(C#N)cn4)CC[C@@H]32)C1` [Example 3, 1-(4-((3R,5R,8R,9R,10S,13S,14S,17S)-3-hydroxy-3,13-dimethylhexadecahydro-1H-cyclopenta[a]phenanthren-17-yl)-4-oxobutyl)-1H-pyrazole-4-carbonitrile], < 100 nM.
On to `C[C@@]1(O)CC[C@H]2[C@H](CC[C@@H]3[C@@H]2CC[C@]2(C)[C@@H](C(=O)CCCCn4cc(C#N)cn4)CC[C@@H]32)C1` [Example 4, 1-(5-((3R,5R,8R,9R,10S,13S,14S,17S)-3-hydroxy-3,13-dimethylhexadecahydro-1H-cyclopenta[a]phenanthren-17-yl)-5-oxopentyl)-1H-pyrazole-4-carbonitrile], for which the IC50 in assay [1] is < 100 nM.
On the same count and under the same terms, in the case of `C[C@@]1(O)CC[C@H]2[C@H](CC[C@@H]3[C@@H]2CC[C@]2(C)[C@@H](CC(=O)Cn4cc(C#N)cn4)CC[C@@H]32)C1` [Example 5, 1-(3-((3R,5R,8R,9R,10S,13R,14S,17R)-3-hydroxy-3,13-dimethylhexadecahydro-1H-cyclopenta[a]phenanthren-17-yl)-2-oxopropyl)-1H-pyrazole-4-carbonitrile] it was 100 to 1000 nM.
On the same count and under the same terms, under `CC(C)(C(=O)C[C@H]1CC[C@H]2[C@@H]3CC[C@@H]4C[C@](C)(O)CC[C@@H]4[C@H]3CC[C@]12C)n1cc(C#N)cn1` [Example 7, 1-(4-((3R,5R,8R,9R,10S,13R,14S,17R)-3-hydroxy-3,13-dimethylhexadecahydro-1H-cyclopenta[a]phenanthren-17-yl)-2-methyl-3-oxobutan-2-yl)-1H-pyrazole-4-carbonitrile] stands 100 to 1000 nM; under `C[C@H](C(=O)C[C@H]1CC[C@H]2[C@@H]3CC[C@@H]4C[C@](C)(O)CC[C@@H]4[C@H]3CC[C@]12C)n1cc(C#N)cn1` [Example 8, 1-((R)-4-((3R,5R,8R,9R,10S,13R,14S,17R)-3-hydroxy-3,13-dimethylhexadecahydro-1H-cyclopenta[a]phenanthren-17-yl)-3-oxobutan-2-yl)-1H-pyrazole-4-carbonitrile], 100 to 1000 nM; under `C[C@@H](C(=O)C[C@H]1CC[C@H]2[C@@H]3CC[C@@H]4C[C@](C)(O)CC[C@@H]4[C@H]3CC[C@]12C)n1cc(C#N)cn1` [Example 9, 1-((S)-4-((3R,5R,8R,9R,10S,13R,14S,17R)-3-hydroxy-3,13-dimethylhexadecahydro-1H-cyclopenta[a]phenanthren-17-yl)-3-oxobutan-2-yl)-1H-pyrazole-4-carbonitrile], 100 to 1000 nM.
On the same count and under the same terms, in the case of `C[C@H](C(=O)Cn1cc(C#N)cn1)[C@H]1CC[C@H]2[C@@H]3CC[C@@H]4C[C@](C)(O)CC[C@@H]4[C@H]3CC[C@]12C` [Example 10, 1-((S)-3-((3R,5R,8R,9R,10S,13S,14S,17R)-3-hydroxy-3,13-dimethylhexadecahydro-1H-cyclopenta[a]phenanthren-17-yl)-2-oxobutyl)-1H-pyrazole-4-carbonitrile] it was < 100 nM; in that of `C[C@@H](C(=O)Cn1cc(C#N)cn1)[C@H]1CC[C@H]2[C@@H]3CC[C@@H]4C[C@](C)(O)CC[C@@H]4[C@H]3CC[C@]12C` [Example 11, 1-((R)-3-((3R,5R,8R,9R,10S,13S,14S,17R)-3-hydroxy-3,13-dimethylhexadecahydro-1H-cyclopenta[a]phenanthren-17-yl)-2-oxobutyl)-1H-pyrazole-4-carbonitrile], 100 to 1000 nM.
For the compound `C[C@@]1(O)CC[C@H]2[C@H](CC[C@@H]3[C@@H]2CC[C@]2(C)[C@@H](CC(=O)c4ccc(C#N)cc4)CC[C@@H]32)C1` [Example 12, 4-(2-((3R,5R,8R,9R,10S,13R,14S,17R)-3-hydroxy-3,13-dimethylhexadecahydro-1H-cyclopenta[a]phenanthren-17-yl)acetyl)benzonitrile], in assay [1], the IC50 is < 100 nM.
As for `COC[C@@]1(O)CC[C@@]2(C)[C@H](CC[C@@H]3[C@@H]2CC[C@]2(C)[C@@H](C(=O)CCn4cc(C#N)cn4)CC[C@@H]32)C1` [Example 13, 1-(3-((3R,5R,8R,9S,10S,13S,14S,17S)-3-hydroxy-3-(methoxymethyl)-10,13-dimethylhexadecahydro-1H-cyclopenta[a]phenanthren-17-yl)-3-oxopropyl)-1H-pyrazole-4-carbonitrile], in assay [1], the concentration for half-maximal inhibition (IC50) is < 100 nM.
Consider Picrotoxin, for which the “inhibition of TBPS binding (positive control)” value in assay [2] is on record as “robustly inhibit TBPS binding”.

What is called IC50 is the point on the concentration scale where inhibition reaches its midpoint.

The values are drawn from patent publication US12673970B2, “Neuroactive steroids and their methods of use” (priority 2020, dated 2026).
